Data: ChEMBL document CHEMBL5715954, “Silencing c-Myc translation as a therapeutic strategy through targeting PI3Kδ and CK1ε in hematological malignancies” (Blood, 2017)
Calls of active or inactive are those of the source. The calls are words filed in the database; no cut-off is given here.

Experiments:
OCI-Ly10 [1] = experiment: Induction of apoptosis in human LY10 cells assessed as increase in caspase-3/7 activation at 1 to 3 uM measured after 24 hrs in presence of carfilzomib; assay type: functional, cell-based; conditions: dose 1-3 µM
[2] = biological target: Myc proto-oncogene protein (Homo sapiens) (UniProt P01106); experiment: Inhibition of c-Myc in human LY10 cells assessed as reduction in eIF4B expression at 3 uM incubated for 24 hrs by Western blot analysis; assay type: cell-based
mTORC1 (Homo sapiens) [3] = biological target: T1, mTORC1 (Homo sapiens) (UniProt P42345+Q8N122+Q9BVC4); experiment: Inhibition of mTORC1 in human LY7 cells assessed as reduction in 4E-BP1 phosphorylation at 3 uM measured after 24 hrs by Western blot analysis; assay type: cell-based
mTORC1 (Homo sapiens) [4] = biological target: T1, mTORC1 (Homo sapiens); experiment: Inhibition of mTORC1 in human LY10 cells assessed as reduction in c-Myc expression at 3 uM measured after 24 hrs in presence of bortezomib by Western blot analysis; assay type: cell-based
mTORC1 (Homo sapiens) [5] = biological target: T1, mTORC1 (Homo sapiens); experiment: Inhibition of mTORC1 in human LY10 cells assessed as reduction in 4E-BP1 phosphorylation at 3 uM measured after 24 hrs by Western blot analysis; assay type: cell-based
OCI-Ly10 [6] = experiment: Cytotoxicity against human LY10 cells assessed as reduction in cell viability measured after 24 hrs by cell titer-glo assay; assay type: functional, cell-based
mTORC1 (Homo sapiens) [7] = biological target: T1, mTORC1 (Homo sapiens); experiment: Inhibition of mTORC1 in human CLL cells assessed as reduction in c-Myc expression at 5 uM measured after 24 hrs by Western blot analysis; assay type: cell-based; conditions: CLL cell
mTORC1 (Homo sapiens) [8] = biological target: T1, mTORC1 (Homo sapiens); experiment: Inhibition of mTORC1 in human LY7 cells assessed as reduction in c-Myc expression at 3 uM measured after 24 hrs by Western blot analysis; assay type: cell-based
SLL = experiment: Induction of apoptosis in human SLL cells assessed as increase in cleaved-PARP expression at 5 uM measured after 24 hrs in presence of carfilzomib by Western blot analysis; assay type: functional, cell-based
LY7 [9] = experiment: Induction of apoptosis in human LY7 cells assessed as increase in cleaved-PARP expression at 3 uM measured after 24 hrs in presence of carfilzomib by Western blot analysis; assay type: functional, cell-based
JeKo-1 = experiment: Cytotoxicity against human JeKo-1 cells assessed as reduction in cell viability measured after 24 hrs by cell titer-glo assay; assay type: functional, cell-based
mTORC1 (Homo sapiens) [10] = biological target: T1, mTORC1 (Homo sapiens); experiment: Inhibition of mTORC1 in human SLL cells assessed as reduction in c-Myc expression at 5 uM measured after 24 hrs by Western blot analysis; assay type: cell-based
[11] = biological target: Myc proto-oncogene protein (Homo sapiens) (UniProt P01106); experiment: Inhibition of c-Myc in human LY7 cells assessed as reduction in E2F1 expression at 3 uM incubated for 24 hrs by Western blot analysis; assay type: cell-based
PF-382 = experiment: Induction of apoptosis in human PF-382 cells assessed as increase in cleaved-PARP expression at 5 uM measured after 24 hrs in presence of carfilzomib by Western blot analysis; assay type: functional, cell-based
CLL cell = experiment: Induction of apoptosis in human CLL cells assessed as increase in cleaved-PARP expression at 5 uM measured after 24 hrs in presence of carfilzomib by Western blot analysis; assay type: functional, cell-based
mTORC1 (Homo sapiens) [12] = biological target: T1, mTORC1 (Homo sapiens); experiment: Inhibition of mTORC1 in human LY10 cells assessed as reduction in c-Myc mRNA expression at 3 uM measured after 24 hrs in presence of bortezomib; assay type: cell-based
mTORC1 (Homo sapiens) [13] = biological target: T1, mTORC1 (Homo sapiens); experiment: Inhibition of mTORC1 in human LY10 cells assessed as reduction in c-Myc mRNA expression at 3 uM measured after 24 hrs in presence of carfilzomib; assay type: cell-based
[14] = biological target: Myc proto-oncogene protein (Homo sapiens) (UniProt P01106); experiment: Inhibition of c-Myc in human LY10 cells assessed as reduction in E2F1 expression at 3 uM incubated for 24 hrs by Western blot analysis; assay type: cell-based
mTORC1 (Homo sapiens) [15] = biological target: T1, mTORC1 (Homo sapiens); experiment: Inhibition of mTORC1 in human PF-382 cells assessed as reduction in 4E-BP1 phosphorylation at 5 uM measured after 24 hrs by Western blot analysis; assay type: cell-based
Rec1 = experiment: Cytotoxicity against human REC1 cells assessed as reduction in cell viability measured after 24 hrs by cell titer-glo assay; assay type: functional, cell-based
mTORC1 (Homo sapiens) [16] = biological target: T1, mTORC1 (Homo sapiens); experiment: Inhibition of mTORC1 in human SLL cells assessed as reduction in 4E-BP1 phosphorylation at 5 uM measured after 24 hrs by Western blot analysis; assay type: cell-based
H9 = experiment: Cytotoxicity against human H9 cells assessed as reduction in cell viability measured after 48 hrs by cell titer-glo assay; assay type: functional, cell-based
[17] = biological target: Myc proto-oncogene protein (Homo sapiens) (UniProt P01106); experiment: Inhibition of c-Myc in human LY7 cells assessed as reduction in eIF4B expression at 3 uM incubated for 24 hrs by Western blot analysis; assay type: cell-based
Z-138 = experiment: Cytotoxicity against human Z138 cells assessed as reduction in cell viability measured after 48 hrs by cell titer-glo assay; assay type: functional, cell-based
mTORC1 (Homo sapiens) [18] = biological target: T1, mTORC1 (Homo sapiens); experiment: Inhibition of mTORC1 in human PF-382 cells assessed as reduction in c-Myc expression at 5 uM measured after 24 hrs by Western blot analysis; assay type: cell-based
MZL = experiment: Induction of apoptosis in human MZL cells assessed as increase in cleaved-PARP expression at 5 uM measured after 24 hrs in presence of carfilzomib by Western blot analysis; assay type: functional, cell-based
OCI-Ly10 [19] = experiment: Induction of apoptosis in human LY10 cells assessed as increase in cleaved-PARP expression at 3 uM measured after 24 hrs in presence of carfilzomib by Western blot analysis; assay type: functional, cell-based
mTORC1 (Homo sapiens) [20] = biological target: T1, mTORC1 (Homo sapiens); experiment: Inhibition of mTORC1 in human CLL cells assessed as reduction in 4E-BP1 phosphorylation at 5 uM measured after 24 hrs by Western blot analysis; assay type: cell-based; conditions: CLL cell
mTORC1 (Homo sapiens) [21] = biological target: T1, mTORC1 (Homo sapiens); experiment: Inhibition of mTORC1 in human LY10 cells assessed as reduction in c-Myc expression at 3 uM measured after 24 hrs by Western blot analysis; assay type: cell-based
mTORC1 (Homo sapiens) [22] = biological target: T1, mTORC1 (Homo sapiens); experiment: Inhibition of mTORC1 in human LY10 cells assessed as reduction in c-Myc expression at 3 uM measured after 24 hrs in presence of carfilzomib by Western blot analysis; assay type: cell-based
LY7 [23] = experiment: Cytotoxicity against human LY7 cells assessed as reduction in cell viability measured after 24 hrs by cell titer-glo assay; assay type: functional, cell-based

Sequence of Myc proto-oncogene protein (Homo sapiens) (P01106 whole entry): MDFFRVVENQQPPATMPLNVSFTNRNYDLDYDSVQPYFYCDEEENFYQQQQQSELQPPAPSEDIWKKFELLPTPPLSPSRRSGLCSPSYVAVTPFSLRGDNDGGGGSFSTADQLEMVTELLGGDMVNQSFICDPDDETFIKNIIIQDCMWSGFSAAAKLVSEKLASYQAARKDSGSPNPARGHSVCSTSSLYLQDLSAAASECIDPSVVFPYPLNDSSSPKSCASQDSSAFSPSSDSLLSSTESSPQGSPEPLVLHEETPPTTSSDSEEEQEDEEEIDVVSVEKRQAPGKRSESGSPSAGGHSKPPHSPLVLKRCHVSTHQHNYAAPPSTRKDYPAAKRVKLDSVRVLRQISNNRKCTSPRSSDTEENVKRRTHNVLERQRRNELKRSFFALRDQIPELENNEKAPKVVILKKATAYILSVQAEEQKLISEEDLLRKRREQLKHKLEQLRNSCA
T1 sequence (Q8N122 whole entry, looked up, other chains not shown): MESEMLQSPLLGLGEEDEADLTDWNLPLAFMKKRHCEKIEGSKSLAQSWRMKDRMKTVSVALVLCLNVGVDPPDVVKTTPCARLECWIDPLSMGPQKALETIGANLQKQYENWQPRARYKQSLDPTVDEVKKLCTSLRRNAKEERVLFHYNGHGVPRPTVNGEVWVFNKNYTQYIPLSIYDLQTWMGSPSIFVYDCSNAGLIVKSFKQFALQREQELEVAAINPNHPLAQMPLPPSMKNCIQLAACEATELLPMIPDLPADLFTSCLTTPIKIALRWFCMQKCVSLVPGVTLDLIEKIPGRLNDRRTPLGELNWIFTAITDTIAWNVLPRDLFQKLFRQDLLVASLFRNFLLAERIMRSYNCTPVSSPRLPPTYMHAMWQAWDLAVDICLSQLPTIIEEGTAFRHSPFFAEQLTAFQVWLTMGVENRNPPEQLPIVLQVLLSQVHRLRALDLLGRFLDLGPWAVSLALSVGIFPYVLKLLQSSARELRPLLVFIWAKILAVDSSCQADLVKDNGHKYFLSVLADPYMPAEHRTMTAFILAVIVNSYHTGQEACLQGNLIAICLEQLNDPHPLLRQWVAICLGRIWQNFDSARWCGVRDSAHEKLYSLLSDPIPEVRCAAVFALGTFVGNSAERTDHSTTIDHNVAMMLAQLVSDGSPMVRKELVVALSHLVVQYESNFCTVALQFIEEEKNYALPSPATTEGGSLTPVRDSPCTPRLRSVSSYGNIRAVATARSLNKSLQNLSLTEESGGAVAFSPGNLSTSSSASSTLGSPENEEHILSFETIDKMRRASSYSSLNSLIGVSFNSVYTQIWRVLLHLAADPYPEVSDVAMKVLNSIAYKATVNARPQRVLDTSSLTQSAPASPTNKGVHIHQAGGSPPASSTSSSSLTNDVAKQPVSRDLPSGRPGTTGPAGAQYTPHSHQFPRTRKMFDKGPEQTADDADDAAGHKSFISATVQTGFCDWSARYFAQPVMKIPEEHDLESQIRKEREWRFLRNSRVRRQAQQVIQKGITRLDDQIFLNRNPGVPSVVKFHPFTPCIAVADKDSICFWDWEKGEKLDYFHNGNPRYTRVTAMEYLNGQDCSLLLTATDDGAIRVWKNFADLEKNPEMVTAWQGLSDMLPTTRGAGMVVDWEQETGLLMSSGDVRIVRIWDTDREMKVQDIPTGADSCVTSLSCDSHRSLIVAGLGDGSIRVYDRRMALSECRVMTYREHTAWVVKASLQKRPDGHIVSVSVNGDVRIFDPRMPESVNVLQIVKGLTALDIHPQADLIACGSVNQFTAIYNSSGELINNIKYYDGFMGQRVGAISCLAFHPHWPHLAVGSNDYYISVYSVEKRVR
T1 sequence (Q9BVC4 whole entry, looked up, other chains not shown): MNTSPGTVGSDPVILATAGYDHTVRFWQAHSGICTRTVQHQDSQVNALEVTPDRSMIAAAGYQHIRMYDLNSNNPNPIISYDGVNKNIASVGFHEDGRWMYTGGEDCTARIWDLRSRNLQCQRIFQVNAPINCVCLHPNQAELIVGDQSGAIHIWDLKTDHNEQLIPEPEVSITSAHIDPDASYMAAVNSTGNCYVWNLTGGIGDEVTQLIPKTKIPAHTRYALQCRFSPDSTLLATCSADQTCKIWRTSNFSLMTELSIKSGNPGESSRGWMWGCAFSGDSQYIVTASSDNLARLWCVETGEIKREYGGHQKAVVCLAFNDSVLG

With `CC[C@H](Nc1ncnc2[nH]cnc12)c1nc2cccc(F)c2c(=O)n1-c1ccccc1` the Activity (OCI-Ly10 [1]) was “Active”, the inhibition [2] was “inactive” and the inhibition (mTORC1 (Homo sapiens) [3]) was “inactive”. For the same molecule, the inhibition (mTORC1 (Homo sapiens) [4]) was “inactive”, the inhibition (mTORC1 (Homo sapiens) [5]) was “inactive” and the Activity (OCI-Ly10 [6]) was “Active”. For the same molecule, the inhibition (mTORC1 (Homo sapiens) [7]) was “inactive”, the inhibition (mTORC1 (Homo sapiens) [8]) was “inactive” and the Activity (SLL) was “Active”. For the same molecule, the Activity (LY7 [9]) was “Active”, the Activity (JeKo-1) was “Active” and the inhibition (mTORC1 (Homo sapiens) [10]) was “inactive”. The inhibition [11] was “inactive”, the Activity (PF-382) was “Active” and the Activity (CLL cell) was “Active”. The inhibition (mTORC1 (Homo sapiens) [12]) was “inactive”, the inhibition (mTORC1 (Homo sapiens) [13]) was “inactive” and the inhibition [14] was “inactive”. For the same molecule, the inhibition (mTORC1 (Homo sapiens) [15]) was “inactive”, the Activity (Rec1) was “Active” and the inhibition (mTORC1 (Homo sapiens) [16]) was “inactive”. For the same molecule, the Activity (H9) was “Active”, the inhibition [17] was “inactive” and the Activity (Z-138) was “Active”. The inhibition (mTORC1 (Homo sapiens) [18]) was “inactive”, the Activity (MZL) was “Active” and the Activity (OCI-Ly10 [19]) was “Active”. The inhibition (mTORC1 (Homo sapiens) [20]) was “inactive”, the inhibition (mTORC1 (Homo sapiens) [21]) was “inactive” and the inhibition (mTORC1 (Homo sapiens) [22]) was “Active”. The Activity (LY7 [23]) was “Active”.
`CC(C)Oc1ccc(-c2nn([C@@H](C)c3oc4ccc(F)cc4c(=O)c3-c3cccc(F)c3)c3ncnc(N)c23)cc1F` [UMBRALISIB] was tested, and the Activity (OCI-Ly10 [1]) was “Active”, the inhibition [2] was “inactive” and the inhibition (mTORC1 (Homo sapiens) [3]) was “inactive”. The inhibition (mTORC1 (Homo sapiens) [4]) was “Active”, the inhibition (mTORC1 (Homo sapiens) [5]) was “inactive” and the Activity (OCI-Ly10 [6]) was “Active”. For the same molecule, the inhibition (mTORC1 (Homo sapiens) [7]) was “inactive”, the inhibition (mTORC1 (Homo sapiens) [8]) was “inactive” and the Activity (SLL) was “Active”. For the same molecule, the Activity (LY7 [9]) was “Active”, the Activity (JeKo-1) was “Active” and the inhibition (mTORC1 (Homo sapiens) [10]) was “inactive”. The inhibition [11] was “inactive”, the Activity (PF-382) was “Active” and the Activity (CLL cell) was “Active”. The inhibition (mTORC1 (Homo sapiens) [12]) was “inactive”, the inhibition (mTORC1 (Homo sapiens) [13]) was “inactive” and the inhibition [14] was “inactive”. For the same molecule, the inhibition (mTORC1 (Homo sapiens) [15]) was “inactive”, the Activity (Rec1) was “Active” and the inhibition (mTORC1 (Homo sapiens) [16]) was “inactive”. For the same molecule, the Activity (H9) was “Active”, the inhibition [17] was “inactive” and the Activity (Z-138) was “Active”. The inhibition (mTORC1 (Homo sapiens) [18]) was “inactive”, the Activity (MZL) was “Active” and the Activity (OCI-Ly10 [19]) was “Active”. The inhibition (mTORC1 (Homo sapiens) [20]) was “inactive”, the inhibition (mTORC1 (Homo sapiens) [21]) was “inactive” and the inhibition (mTORC1 (Homo sapiens) [22]) was “Active”. For the same molecule, the Activity (LY7 [23]) was “Active”.
